According to patent US20190002436A1, “RESPIRATORY SYNCYTIAL VIRUS INHIBITORS” (MEDIVIR AB, priority 2015, published 2019):

tested on: RSV (Long); assay: RSV cytopathic effect (CPE)-based viral replication assay; assay type: cell-based, respiratory syncytial virus (RSV); conditions: HEp-2 cells infected with RSV Long at MOI 0.015; 3 days at 37° C.; cell viability by CellTiter-Glo luminescence; read-out: EC50 (nm)
In short: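 HEp-2 cells, 2,500 per well in DMEM with 2% heat-inactivated FBS, treated with 10-point compound dilutions and infected with RSV Long at MOI 0.015. After 3 days at 37 °C, 5% CO2, viability read by CellTiter-Glo luminescence; EC50 derived from CPE data.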

Row | Structure (SMILES) | EC50 [nM]
1 | CS(=O)(=O)Nc1ccc(-c2c(CN3C(=O)C4(CN(C(=O)C5(N)CC5)C4)c4ccccc43)ncc3ccccc23)cc1 [Example 132b, N-(4-(3-((1-(1-aminocyclopropanecarbonyl)-2′-oxospiro[azetidine-3,3′-indolin]-1′-yl)methyl)isoquinolin-4-yl)phenyl)methanesulfonamide] | 5.1
2 | CS(=O)(=O)N1CCC2(CC1)C(=O)N(Cc1ncc3ccccc3c1CCCCO)c1cnccc12 [Example 37c, 1′-((4-(4-Hvdroxybutyl)isoquinolin-3-yl)methyl)-1-(methylsulfonyl)spiro[piperidine-4,3′-pyrrolo[2,3-c]pyridin]-2′(1′H)-one] | 7.2

same assay, conditions: human respiratory syncytial virus, HEp-2, 72 h, HEp-2 cells infected with RSV Long at MOI 0.015; 3 days at 37° C.; cell viability by CellTiter-Glo luminescence; read-out: EC50 (nm)

Row | Structure (SMILES) | EC50 [nM]
3 | COC(=O)N1CCC(n2c(=O)n(Cc3ncc4cc(Cl)ccc4c3CCCCO)c3cnccc32)CC1 [Example 20, Methyl 4-(3-((7-chloro-4-(4-hydroxybutyl)isoquinolin-3-yl)methyl)-2-oxo-2,3-dihydro-1H-imidazo[4,5-c]pyridin-1-yl)piperidine-1-carboxylate] | 8.5
4 | NCC(=O)N1CC2(C1)C(=O)N(Cc1ncc3ccccc3c1-c1cccnc1)c1ccccc12 [Example 152, 1-(2-Aminoacetyl)-1′-((4-(pyridin-3-yl)isoquinolin-3-yl)methyl)spiro[azetidine-3,3′-indolin]-2′-one] | 12
5 | CS(=O)(=O)N1CCC2(CC1)C(=O)N(Cc1ncc3ccccc3c1-c1cc[nH]c1)c1cnccc12 [Example 2023] | 43
6 | NCCC(=O)N1CC2(C1)C(=O)N(Cc1ncc3ccccc3c1-c1cccnc1)c1ccccc12 [Example 150, 1-(3-Aminopropanoyl)-1′-((4-(pyridin-3-yl)isoquinolin-3-yl)methyl)spiro[azetidine-3,3′-indolin]-2′-one] | 6.6
7 | CS(=O)(=O)N(c1ccc(-c2c(CN3C(=O)C4(CCN(C(=O)C5(C(F)(F)F)CC5)CC4)c4ccncc43)ncc3ccccc23)cn1)S(C)(=O)=O [Example 166d, N-(methylsulfonyl)-N-(5-(3-((2′-oxo-1-(1-(trifluoromethyl)cyclopropanecarbonyl)spiro[piperidine-4,3′-pyrrolo[2,3-c]pyridin]-1′(2′H)-yl)methyl)isoquinolin-4-yl)pyridin-2-yl)methanesulfonamide] | 2.5
8 | NC1(c2ccc3c(CCCCO)c(Cn4c(=O)n(C5CC5)c5ccncc54)ncc3c2)COC1 [Example 46g, 3-((7-(3-Aminooxetan-3-yl)-4-(4-hydroxybutyl)isoquinolin-3-yl)methyl)-1-cyclopropyl-1H-imidazo[4,5-c]pyridin-2(3H)-one] | 8600
9 | O=C(N1CCC2(CC1)C(=O)N(Cc1ncc3ccccc3c1-c1cccnc1)c1cnccc12)C(F)(F)F [Example 129b, 1′-((4-(Pyridin-3-yl)isoquinolin-3-yl)methyl)-1-(2,2,2-trifluoroacetyl)spiro[piperidine-4,3′-pyrrolo[2,3-c]pyridin]-2′(1′H)-one] | 5.2
10 | COC(=O)N1CC2(C1)C(=O)N(Cc1ncc3ccccc3c1-c1ccc(C#N)nc1)c1ccccc12 [Example 44c, Methyl 1′-((4-(6-cyanopyridin-3-yl)isoquinolin-3-yl)methyl)-2′-oxospiro[azetidine-3,3′-indoline]-1-carboxylate] | 2.8
11 | COC(=O)N1CC2(C1)C(=O)N(Cc1ncc3ccccc3c1-c1ccccn1)c1ccccc12 [Example 102, Methyl 2′-oxo-1′-((4-(pyridin-2-yl)isoquinolin-3-yl)methyl)spiro[azetidine-3,3′-indoline]-1-carboxylate] | 194
12 | COC(=O)N1CCC(n2c(=O)n(Cc3ncc4ccccc4c3CCCC(F)(F)F)c3cnccc32)CC1 [Example 9b, methyl 4-(2-oxo-3-((4-(4,4,4-trifluorobutyl)isoquinolin-3-yl)methyl)-2,3-dihydro-1H-imidazo[4,5-c]pyridin-1-yl)piperidine-1-carboxylate] | 4
13 | O=c1n(Cc2ncc3ccccc3c2-c2ccc(O)nc2)c2ccccc2n1C1CC1 [Example 88, 1-Cyclopropyl-3-((4-(6-hydroxypyridin-3-yl)isoquinolin-3-yl)methyl)-1H-benzo[d]imidazol-2(3H)-one] | 8.5
14 | COC(=O)N1CC2(C1)C(=O)N(Cc1ncc3ccccc3c1-c1ccc(NS(C)(=O)=O)nc1)c1ccccc12 [Example 134b, Methyl 1′-((4-(6-(methylsulfonamido)pyridin-3-yl)isoquinolin-3-yl)methyl)-2′-oxospiro[azetidine-3,3′-indoline]-1-carboxylate] | 0.55
15 | CC(C)(C)c1ccc(-c2c(CN3C(=O)C4(CN(S(C)(=O)=O)C4)c4ccccc43)ncc3ccccc23)cc1 [Example 71, 1′-((4-(4-(Tert-butyl)phenyl)isoquinolin-3-yl)methyl)-1-(methylsulfonyl)spiro[azetidine-3,3′-indolin]-2′-one] | 200
16 | CS(=O)(=O)N1CCC2(CC1)C(=O)N(Cc1ncc3ccccc3c1-c1cnco1)c1cnccc12 [Example 159b, 1-(methylsulfonyl)-1′-((4-(oxazol-5-yl)isoquinolin-3-yl)methyl)spiro[piperidine-4,3′-pyrrolo[2,3-c]pyridin]-2′(1′H)-one] | 7.8
17 | CS(=O)(=O)N1CC2(C1)C(=O)N(Cc1ncc3ccccc3c1-c1ccc(C#N)cc1)c1ccccc12 [Example 76] | 2.5
18 | NC1(C(=O)N2CCC3(CC2)C(=O)N(Cc2ncc4ccccc4c2-c2cn[nH]c2)c2cnccc23)CC1 [Example 2030] | 5.7

Row | Structure (SMILES) | EC50 [nM]
19 | NC(=O)c1ccc(-c2c(CN3C(=O)C4(CCN(C(=O)[C@@H]5CCCN5)CC4)c4ccncc43)ncc3ccccc23)cn1 [Example 2033] | 27
20 | N#Cc1ccc(-c2c(CN3c4ccccc4[C@]4(C[C@H](O)C4)C3=O)ncc3ccccc23)cn1 [Example 82] | 11
21 | CS(=O)(=O)N1CC2(C1)C(=O)N(Cc1ncc3ccccc3c1-c1cccnc1)c1ccccc12 [Example 154, 1-(Methylsulfonyl)-1′-((4-(pyridin-3-yl)isoquinolin-3-yl)methyl)spiro[azetidine-3,3′-indolin]-2′-one] | 1.4
22 | CNC1(C(=O)N2CC3(C2)C(=O)N(Cc2ncc4ccccc4c2-c2ccc(C#N)nc2)c2ccccc23)CC1 [Example 63, 5-(3-((1-(1-(Methylamino)cyclopropanecarbonyl)-2′-oxospiro[azetidine-3,3′-indolin]-1′-yl)methyl)isoquinolin-4-yl)picolinonitrile] | 1.5
23 | NC1(C(=O)N2CCC3(CC2)C(=O)N(Cc2ncc4ccccc4c2-c2cnco2)c2cnccc23)CC1 [Example 2043] | 40
24 | O=C1N(Cc2ncc3ccccc3c2-c2cccnc2)c2cnccc2C12CCN(S(=O)(=O)CC(F)(F)F)CC2 [Example 139, 1′-((4-(pyridin-3-yl)isoquinolin-3-yl)methyl)-1-((2,2,2-trifluoroethyl)sulfonyl)spiro[piperidine-4,3′-pyrrolo[2,3-c]pyridin]-2′(1′H)-one] | 7.2
25 | COC(=O)N1CCC2(CC1)C(=O)N(Cc1ncc3ccccc3c1CCCCO)c1cnccc12 [Example 21b, Methyl 1′-((4-(4-hydroxybutyl)isoquinolin-3-yl)methyl)-2′-oxo-1′,2′-dihydrospiro[piperidine-4,3′-pyrrolo[2,3-c]pyridine]-1-carboxylate] | 6.4
26 | NC1(CC(=O)N2CC3(C2)C(=O)N(Cc2ncc4ccccc4c2-c2cccnc2)c2ccccc23)CC1 [Example 156, 1-(2-(1-aminocyclopropyl)acetyl)-1′-((4-(pyridin-3-yl)isoquinolin-3-yl)methyl)spiro[azetidine-3,3′-indolin]-2′-one] | 13
27 | CS(=O)(=O)c1ccc(-c2c(Cn3c(=O)n(C4CC4)c4ccncc43)ncc3ccccc23)cn1 [Example 70c, 1-Cyclopropyl-3-((4-(6-(methylsulfonyl)pyridin-3-yl)isoquinolin-3-yl)methyl)-1H-imidazo[4,5-c]pyridin-2(3H)-one] | 19
28 | COC(=O)N1CCC(n2c(=O)n(Cc3ncc4ccccc4c3CCCCO)c3cccc(Cl)c32)CC1 [Example 16, Methyl 4-(7-chloro-3-((4-(4-hydroxybutyl)isoquinolin-3-yl)methyl)-2-oxo-2,3-dihydro-1H-benzo[d]imidazol-1-yl)piperidine-1-carboxylate] | 19
29 | CS(=O)(=O)N1CCC2(CC1)C(=O)N(Cc1ncc3ccccc3c1-c1cccnc1)c1cnccc12 [Example 136, 1-(methylsulfonyl)-1′-((4-(pyridin-3-yl)isoquinolin-3-yl)methyl)spiro[piperidine-4,3′-pyrrolo[2,3-c]pyridin]-2′(1′H)-one] | 0.8
30 | NC1(C(=O)N2CCC3(CC2)C(=O)N(Cc2ncc4ccccc4c2-c2cnc(C(F)(F)F)s2)c2cnccc23)CC1 [Example 2028] | 13
31 | NC1(C(=O)N2CCC3(CC2)C(=O)N(Cc2ncc4ccccc4c2CCCCO)c2cnccc23)CC1 [Example 39b, 1-(1-Aminocyclopropanecarbonyl)-1′-((4-(4-hydroxybutyl)isoquinolin-3-yl)methyl)spiro[piperidine-4,3′-pyrrolo[2,3-c]pyridin]-2′(1′H)-one] | 35
32 | COC(=O)c1ccc(-c2c(CN3C(=O)C4(CCN(C(=O)C5(N)CC5)CC4)c4ccncc43)ncc3ccccc23)cn1 [Example 50c, Methyl 5-(3-((1-(1-aminocyclopropanecarbonyl)-2′-oxospiro[piperidine-4,3′-pyrrolo[2,3-c]pyridin]-1′(2′H)-yl)methyl)isoquinolin-4-yl)picolinate] | 17
33 | COCCN1CC2(C1)C(=O)N(Cc1ncc3ccccc3c1-c1ccc(F)nc1)c1ccccc12 [Example 85c, 1′-((4-(6-Fluoropyridin-3-yl)isoquinolin-3-yl)methyl)-1-(2-methoxyethyl)spiro[azetidine-3,3′-indolin]-2′-one] | 42
